Assays:
[1] = test system: A. fumigatus; design: key: I = intermediate activity; S = susceptibility; R = Resistance; conditions: A. fumigatus clinical strain; cited from earlier work
[2] = test system: C. lusitaniae; design: key: I = intermediate activity; S = susceptibility; R = Resistance; conditions: C. lusitaniae clinical strain; cited from earlier work
[3] = test system: A. flavus; design: key: I = intermediate activity; S = susceptibility; R = Resistance; conditions: A. flavus clinical strain; cited from earlier work
[4] = test system: C. parapsilosis; design: key: I = intermediate activity; S = susceptibility; R = Resistance; conditions: C. parapsilosis clinical strain; cited from earlier work
[5] = test system: C. guillermondii; design: key: I = intermediate activity; S = susceptibility; R = Resistance; conditions: C. guillermondii clinical strain; cited from earlier work
[6] = test system: C. Krusei; design: key: I = intermediate activity; S = susceptibility; R = Resistance; conditions: C. Krusei clinical strain; cited from earlier work
[7] = test system: C. albicans; design: key: I = intermediate activity; S = susceptibility; R = Resistance; conditions: C. albicans clinical strain; cited from earlier work
[8] = test system: S. cerevisiae; design: key: I = intermediate activity; S = susceptibility; R = Resistance; conditions: S. cerevisiae clinical strain; cited from earlier work
[9] = test system: A. niger; design: key: I = intermediate activity; S = susceptibility; R = Resistance; conditions: A. niger clinical strain; cited from earlier work
[10] = test system: C. tropicalis; design: key: I = intermediate activity; S = susceptibility; R = Resistance; conditions: C. tropicalis clinical strain; cited from earlier work
[11] = test system: C. glabrata; design: key: I = intermediate activity; S = susceptibility; R = Resistance; conditions: C. glabrata clinical strain; cited from earlier work
[12] = test system: A. terreus; design: key: I = intermediate activity; S = susceptibility; R = Resistance; conditions: A. terreus clinical strain; cited from earlier work
[13] = test system: C. lusitaniae; test: Antifungal disk diffusion susceptibility test (CLSI M44); type: cell-based; conditions: Clavispora lusitaniae; C. lusitaniae; 10 μg control
Procedure: (§1) Filamentous fungi and yeasts strains, from clinical origin, were supplied by Microbiology Service from The Princess Hospital, Madrid. They are detailed in Table IX.
(§2) Filamentous fungi and yeast cells suspensions in distilled water was prepared from a culture of 24-48 h, depending on species, in Sabouraud agar. Each suspension was adjusted to a fixed size inoculum of 1-5×10^8 CFU/ml with a spectrophotometer (Ferraro, MJ National Committee for Clinical Laboratory Standards. 2000).
(§3) Antifungal susceptibility tests were developed following the standardized methodology detailed in document CLSI: M44-4: Method for Antifungal Disk diffusion susceptibility testing of yeasts consisting of disk diffusion on agar Muller-Hinton (supplemented with 2% glucose).

[14] = test system: C. albicans; test: as above; type: cell-based; conditions: Candida albicans; C. albicans; 10 μg control
Procedure: as §1, §2, §3

[15] = test system: C. tropicalis; test: as above; type: cell-based; conditions: Candida tropicalis; C. tropicalis; 10 μg control
Procedure: as §1, §2, §3

[16] = test system: A. fumigatus; test: as above; type: cell-based; conditions: Aspergillus fumigatus; A. fumigatus; 10 μg control
Procedure: as §1, §2, §3

[17] = test system: C. parapsilosis; test: as above; type: cell-based; conditions: Lodderomyces parapsilosis; C. parapsilosis; 10 μg control
Procedure: as §1, §2, §3

[18] = test system: A. terreus; test: as above; type: cell-based; conditions: Aspergillus terreus; A. terreus; 10 μg control
Procedure: as §1, §2, §3

[19] = test system: C. guillermondii; test: as above; type: cell-based; conditions: C. guillermondii; 10 μg control
Procedure: as §1, §2, §3

[20] = test system: A. flavus; test: as above; type: cell-based; conditions: Aspergillus flavus; A. flavus; 10 μg control
Procedure: as §1, §2, §3

[21] = test system: A. niger; test: as above; type: cell-based; conditions: Aspergillus niger; A. niger; 10 μg control
Procedure: as §1, §2, §3

[22] = test system: S. cerevisiae; test: as above; type: cell-based; conditions: Saccharomyces cerevisiae; S. cerevisiae; 10 μg control
Procedure: as §1, §2, §3

SMILES	Susceptibility of the strain [1]	Susceptibility of the strain [2]	Susceptibility of the strain [3]	Susceptibility of the strain [4]	Susceptibility of the strain [5]	Susceptibility of the strain [6]	Susceptibility of the strain [7]	Susceptibility of the strain [8]	Susceptibility of the strain [9]	Susceptibility of the strain [10]	Susceptibility of the strain [11]	Susceptibility of the strain [12]	other results
C[C@@H]1[C@H](O)[C@@H](C)/C=C/C=C/C=C/C=C/C=C/C=C/C=C/[C@H](O[C@@H]2O[C@H](C)[C@@H](O)[C@H](N)[C@@H]2O)C[C@@H]2O[C@](O)(C[C@@H](O)C[C@@H](O)[C@H](O)CC[C@@H](O)C[C@@H](O)CC(=O)O[C@H]1C)C[C@H](O)[C@H]2C(=O)O [Amphotericin B]	S	I	I	S	R	I	I	I	S	S	S	I	–
Clc1ccccc1C(c1ccccc1)(c1ccccc1)n1ccnc1 [Clo, clotrimazol]	S	S	S	S	R	S	S	R	S	S	S	S	zone of inhibition at 10 µg/disc [13]: 41 mm; zone of inhibition at 10 µg/disc [14]: 15 mm; zone of inhibition at 10 µg/disc [15]: 25 mm; zone of inhibition at 10 µg/disc [16]: 22 mm; zone of inhibition at 10 µg/disc [17]: 42 mm; zone of inhibition at 10 µg/disc [18]: 26 mm; zone of inhibition at 10 µg/disc [19]: 44 mm; zone of inhibition at 10 µg/disc [20]: 32 mm; zone of inhibition at 10 µg/disc [21]: 25 mm; zone of inhibition at 10 µg/disc [22]: 30 mm
OC(Cn1cncn1)(Cn1cncn1)c1ccc(F)cc1F [Fluconazole]	R	S	R	S	R	S	S	S	R	S	S	R	–

Reference: patent US11584710B2, “Compounds for treating infections” (HORITZONTS TECNOLOGICS HUNGARY KORLÁTOLT FELELOSSÉGU …, priority 2017, dated 2023)
